The text below walks through data of patent publication US12344610B2, “APOL1 inhibitors and methods of use” (Maze Therapeutics, Inc., priority 2022, dated 2025).

Like-named read-outs stand apart in the source and are kept apart here.

What all share (type): cell-based
Experiment [1] concerns HEK293 cells overexpressing APOL1 G2. Nature of the experiment: APOL1 G2 HEK293 cell rescue assay (reversal of cell death caused by overexpression of APOL1). To be noted: geometric mean of at least 2 assay runs, † = single assay run. In a few lines:
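Each compound tested in duplicate wells on one plate per run, with values usually the geometric mean across at least two runs on different days, occasionally from one run only. Read-out: concentration giving half-maximal rescue of APOL1 G2 overexpression-induced death of HEK293 cells.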

The subject of experiment [2] is Trypanosoma brucei Lister 427 VSG221 with APOL1 G2 recombinant protein. Nature of the experiment: APOL1 G2 trypanosome cell rescue assay (Example B5). Conditions: geometric mean of at least 2 assay runs, † = single assay run. As for the experimental part: (§1) APOL1 G0/G1/G2 viability assay for measurement of cytotoxicity reversal by compound in trypanosomes (APOL1 G0/G1/G2 trypanosome cell rescue assay).
(§2) APOL1 protein expression and purification. The mature from of APOL1 proteins, residues 28-398, were expressed from a pET28a vector with an N-terminal His-tag and TEV cleavage site. Proteins were expressed in Escherichia coli BL21-CodonPlus (DE3)-RIPL cells. Liter cultures of terrific broth were grown at 37° C. until an OD600 of ˜0.8 was reached and then induced with isopropyl β-D-1-thiogalactopyranoside (IPTG; final concentration of 500 μM). Afterwards, cultures were grown for 3 hours at 37° C. For protein purification, cell pellets were resuspended in lysis buffer (50 mM Tris, pH 8.5, 5 mM EDTA, 0.5 mM DTT, 0.5 mM PMSF) supplemented with a cocktail of protease inhibitors. Cells were lysed by sonication, centrifuged, and the resulting pellet was collected. The homogenized pellet was resuspended in wash buffer (50 mM Tris, pH 8.5, 0.5 M NaCl, 5 mM EDTA, 0.5 mM DTT, 0.5 mM PMSF, protease inhibitor cocktail) and collected by centrifugation. Inclusion body dissolution was then conducted as previously reported (PNAS 112(9) (2015) 2894-2899; www.pnas.org/cgi/doi/10.1073/pnas.1421953112; herein incorporated by reference in its entirety). The solubilized APOL1 protein was applied to a nickel column (HisTrap, GE Life Sciences) preequilibrated in buffer A (50 mM Tris, pH 8.5, 0.15 M NaCl, 1% zwittergent 3-14, protease inhibitor cocktail). The resin was washed with buffer B (50 mM Tris, pH 8.5, 0.15 M NaCl, 0.1% DDM) and TEV cleavage was conducted on column overnight. Afterwards, the column was washed with buffer B, followed by His-washing buffer (50 mM Tris, pH 8.5, 0.15 M NaCl, 0.1% DDM, 10 mM imidazole). The protein was then removed from the resin using His-elution buffer (50 mM Tris, pH 8.5, 0.15 M NaCl, 0.1% DDM, 250 mM imidazole). The sample was further purified by size exclusion chromatography using a Superdex 200 Increase column (GE Life Sciences) in 50 mM Tris, pH 8.5, 0.15 M NaCl, and 0.1% DDM buffer. All APOL1 proteins (G0, G1, and G2) were generated at Viva Biotech (Shanghai) Ltd.
(§3) Modified HMI-9 media preparation (https://tryps.rockefeller.edu/trypsru2_culture_media_preparation.html; herein incorporated by reference in its entirety). Trypanosomes were cultured in modified HMI-9 media consisting of IMDM (ThermoFisher, 12440053), 10% heat-inactivated FBS (Gibco, 10082-147), 10% Serum Plus (Sigma-Aldrich, 14008C), 1×HMI-9 supplement stock, and 1% hypoxanthine stock. The 10×HMI-9 supplement stock was made by dissolving 280 mg bathocuproine disulfonic acid (Sigma-Aldrich, 146625), 1820 mg cysteine (add after bathocuproine) (Sigma-Aldrich, 30089), 1100 mg pyruvic acid (Sigma-Aldrich, 107360), 100 mg uracil (Sigma-Aldrich, U0750), 100 mg cytosine (Sigma-Aldrich, C3506) and 140 μL 2-mercaptoethanol (Sigma-Aldrich, M3148) in 1000 mL of water. The resulting solution was aliquoted and stored at −20° C. The hypoxanthine stock was made by dissolving 4 g of NaOH into 1000 mL of water. Afterwards, 13.6 g hypoxanthine (Sigma-Aldrich, H9377) was added to this mixture. The resulting solution was aliquoted and stored at −20° C.
(§4) Assay Setup. Trypanosoma brucei Lister 427 VSG221 (ATCC, PRA-382) cells were cultured in modified HMI-9 media. All experiments were performed in 384-well, white, solid bottom, tissue culture treated plates (Greiner, 781080). Assay ready plates were generated with duplicate 11-point compound dilution series that consisted of 2-fold stepwise dilutions (0.4% DMSO final). To each well, was added 20 μL of 2 μg/mL of APOL1 G0, G1, or G2 recombinant protein in modified HMI-9 media using a MultiDrop Combi (final APOL1 protein concentration=[…]). Trypanosomes were counted using a hemacytometer and diluted in modified HMI-9 media to a concentration of 1.25×10^4 cell/mL. […]

The test system of experiment [3] is Trypanosoma brucei Lister 427 VSG221 with APOL1 G1 recombinant protein. Nature of the experiment: APOL1 G1 trypanosome cell rescue assay (Example B5). To be noted: geometric mean of at least 2 assay runs, † = single assay run. As to the method:
as §1, §2, §3, §4

Experiment [4] relates to HEK293 clonal cell line overexpressing APOL1 G1. Nature of the experiment: APOL1 G1 HEK293 cell rescue assay (Example B3). Conditions: geometric mean of at least 2 runs, † = single run, ¥ = concentration at 50% rescue estimated (no sigmoidal curve). The essentials: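 Rescue of cell death caused by APOL1 G1 overexpression was measured in a clonal HEK293 line. Compounds were tested in duplicate on one plate, and EC50s were geometric means across at least two runs on different days. Some values are estimated 50%-rescue concentrations where curve fitting failed.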

The test system of experiment [5] is Trypanosoma brucei Lister 427 VSG221 with APOL1 G0 recombinant protein. Nature of the experiment: APOL1 G0 trypanosome cell rescue assay (Example B5). To be noted: geometric mean of at least 2 assay runs, † = single assay run. As to the method:
as §1, §2, §3, §4

Setting [6] is: Trypanosoma brucei, 20 h, read-out: APOL1 G2 Trypanosome Rescue EC50, Trypanosoma brucei Lister 427 VSG221 with APOL1 G2 recombinant protein, 20 hours, CellTiter-Glo.
Where [7] appears, read: Trypanosoma brucei, 20 h, read-out: APOL1 G1 Trypanosome Rescue EC50, Trypanosoma brucei Lister 427 VSG221 with APOL1 G1 recombinant protein, 20 hours, CellTiter-Glo.
[8] abbreviates: HEK293 clonal line overexpressing APOL1 G1.
[9] abbreviates: Trypanosoma brucei, 20 h, read-out: APOL1 G0 Trypanosome Rescue EC50, Trypanosoma brucei Lister 427 VSG221 with APOL1 G0 recombinant protein, 20 hours, CellTiter-Glo.
Setting [10] is: Homo sapiens, HEK293, HEK293 overexpressing APOL1 G2.
The mark [11] stands for this setting: Homo sapiens, HEK293, HEK293 clonal line overexpressing APOL1 G1.

In the case of `CC(CO)(c1ncc(OCCN2CCC3(CC2)C(=O)Nc2ccc(Cl)cc23)cc1C(F)(F)F)S(C)(=O)=O` (single isomer, unassigned) [Compound 402, 5-chloro-1′-[2-({6-[(2S or 2R)-1-hydroxy-2-methanesulfonylpropan-2-yl]-5-(trifluoromethyl)pyridin-3-yl}oxy)ethyl]-1,2-dihydrospiro[indole-3,4′-piperidin]-2-one], the EC50 in experiment [1] (HEK293 overexpressing APOL1 G2) was 0.0238 µM; in experiment [2] (setting [6]) it was 0.0165 µM; in experiment [3] (setting [7]), 0.0427 µM; in experiment [4] (setting [8]), 0.0357 µM; in experiment [5] (setting [9]) it was 0.0336 µM.
For the compound `O=C1CCc2cc(OCCN3CCC4(CC3)C(=O)Nc3ccc(Cl)cc34)cnc2N1[C@H]1C[C@@H](O)C1` [Compound 190, 5-chloro-1′-[2-({7-oxo-8-[(cis)-3-hydroxycyclobutyl]-5,6,7,8-tetrahydro-1,8-naphthyridin-3-yl}oxy)ethyl]-1,2-dihydrospiro[indole-3,4′-piperidin]-2-one], the EC50 was 0.0547 µM in experiment [1] (setting [10]); 0.0357 µM in experiment [2] (setting [6]); 0.104 µM in experiment [3] (setting [7]); 0.105 µM in experiment [4] (setting [11]); 0.0921 µM in experiment [5] (setting [9]).
In the case of `O=C(NC1CCS(=O)(=O)C1)c1ccc(OCCN2CCC3(CC2)C(=O)Nc2ccc(Cl)cc23)cc1F` (centres unmarked) [Compound 241, 4-(2-{5-chloro-2-oxo-1,2-dihydrospiro[indole-3,4′-piperidin]-1′-yl}ethoxy)-N-(1,1-dioxo-1λ^6-thiolan-3-yl)-2-fluorobenzamide], the EC50 was 0.0721 µM in experiment [1] (setting [10]); 0.0633 µM in experiment [2] (setting [6]); 0.258 µM in experiment [3] (setting [7]); 0.217 µM in experiment [4] (setting [11]); 0.177 µM in experiment [5] (setting [9]).
Consider `CS(=O)(=O)C1(c2ccc(OCCN3CCC4(CC3)C(=O)Nc3ccc(Cl)cc34)cc2)CC(O)C1` (centres unmarked) [Compound 268, 5-chloro-1′-{2-[4-(3-hydroxy-1-methanesulfonylcyclobutyl)phenoxy]ethyl}-1,2-dihydrospiro[indole-3,4′-piperidin]-2-one], for which the EC50 is 0.0534 µM in experiment [1] (HEK293 overexpressing APOL1 G2); 0.0327 µM in experiment [2] (read-out: APOL1 G2 Trypanosome Rescue EC50, Trypanosoma brucei Lister 427 VSG221 with APOL1 G2 recombinant protein, 20 hours, CellTiter-Glo); 0.121 µM in experiment [3] (read-out: APOL1 G1 Trypanosome Rescue EC50, Trypanosoma brucei Lister 427 VSG221 with APOL1 G1 recombinant protein, 20 hours, CellTiter-Glo); 0.211 µM in experiment [4] (setting [8]); 0.108 µM in experiment [5] (read-out: APOL1 G0 Trypanosome Rescue EC50, Trypanosoma brucei Lister 427 VSG221 with APOL1 G0 recombinant protein, 20 hours, CellTiter-Glo).
`O=C(c1ccc(OCCN2CCC3(CC2)C(=O)N(CCO)c2ccc(Cl)cc23)cc1C(F)(F)F)N1CCS(=O)(=O)CC1` [Compound 271, 4-(4-{2-[5-chloro-1-(2-hydroxyethyl)-2-oxo-1,2-dihydrospiro[indole-3,4′-piperidin]-1′-yl]ethoxy}-2-(trifluoromethyl)benzoyl)-1λ^6-thiomorpholine-1,1-dione]: the EC50 was 0.152 µM in experiment [1] (setting [10]); 0.0159 µM in experiment [2] (setting [6]); 0.0507 µM in experiment [3] (setting [7]); 0.34 µM in experiment [4] (setting [11]); 0.051 µM in experiment [5] (setting [9]).
The like results for `CC(=O)c1ncc(OCCN2CCC3(CC2)C(=O)Nc2ccc(Cl)cc23)cc1C(F)(F)F` [Compound 294, 1′-(2-{[6-acetyl-5-(trifluoromethyl)pyridin-3-yl]oxy}ethyl)-5-chloro-1,2-dihydrospiro[indole-3,4′-piperidin]-2-one] were, in that order, 0.0233 µM, 0.0214 µM, 0.089 µM, 0.0656 µM and 0.0619 µM.
Take `CC(=O)c1ncc(OCCN2CCC3(CC2)C(=O)Nc2ccc(C(F)F)cc23)cc1C(F)(F)F` [Compound 295, 1′-(2-{[6-acetyl-5-(trifluoromethyl)pyridin-3-yl]oxy}ethyl)-5-(difluoromethyl)-1,2-dihydrospiro[indole-3,4′-piperidin]-2-one]: the EC50 in experiment [1] (setting [10]) is 0.0436 µM; in experiment [2] (setting [6]), 0.0111 µM; in experiment [3] (setting [7]), 0.0402 µM; in experiment [4] (setting [11]), 0.112 µM; in experiment [5] (setting [9]), 0.0326 µM.
`CC(=O)c1ncc(OCCN2CCC3(CC2)C(=O)Nc2ccc(C#N)cc23)cc1C(F)(F)F` [Compound 298, 1′-(2-{[6-acetyl-5-(trifluoromethyl)pyridin-3-yl]oxy}ethyl)-2-oxo-1,2-dihydrospiro[indole-3,4′-piperidine]-5-carbonitrile]: the concentration giving a half-maximal response (EC50) was 0.0818 µM in experiment [1] (setting [10]); 0.0566 µM in experiment [2] (setting [6]); 0.156 µM in experiment [3] (setting [7]); 0.218 µM in experiment [4] (setting [11]); 0.119 µM in experiment [5] (setting [9]).
The matching figures for `O=C1Nc2ccc(Cl)cc2C12CCN(CCOc1cnc(C3(O)CC3)nc1)CC2` [Compound 308, 5-chloro-1′-(2-{[2-(1-hydroxycyclopropyl)pyrimidin-5-yl]oxy}ethyl)-1,2-dihydrospiro[indole-3,4′-piperidin]-2-one]: 0.112 µM, 0.15 µM, 0.435 µM, 0.196 µM and 0.335 µM.
Turning to `C[C@]1(O)C[C@@H](N2C(=O)CCc3cc(OCCN4CCC5(CC4)C(=O)Nc4c(I)cc(Cl)cc45)cnc32)C1` [Compound 329, 5-chloro-7-iodo-1′-[2-({7-oxo-8-[(cis)-3-hydroxy-3-methylcyclobutyl]-5,6,7,8-tetrahydro-1,8-naphthyridin-3-yl}oxy)ethyl]-1,2-dihydrospiro[indole-3,4′-piperidin]-2-one], the EC50 in experiment [1] (setting [10]) is 0.0569 µM; in experiment [2] (setting [6]), 0.0673 µM; in experiment [3] (setting [7]) it was 0.24 µM; in experiment [4] (setting [11]), 0.0961 µM; in experiment [5] (setting [9]), 0.199 µM.

As usually defined, the EC50 is the concentration that produces a half-maximal response.
